Reference: article PMC12114297 (Molecules, 2025)
Converted amounts (≈) assume the structure as drawn. Like-named read-outs stand apart in the source and are kept apart here.

Assays:
S. aureus ATCC 25923 = assay: MIC by agar dilution, S. aureus; type: cell-based; details: Staphylococcus aureus, ATCC25923, 0.39–200 μg/mL, read-out: MIC against S. aureus
[1] = system: S. epidermidis ATCC 12228; assay: MIC by agar dilution, S. epidermidis; type: cell-based; details: Staphylococcus epidermidis, ATCC12228, 0.39–200 μg/mL, read-out: MIC against S. epidermidis
[2] = system: Staphylococcus aureus ATCC 25923; assay: Agar well diffusion, S. aureus; type: cell-based; details: for zone of inhibition at 1000 µg/mL: Staphylococcus aureus; for Antibacterial activity in words: agar well diffusion, particularly S. aureus
Method: (§1) The antimicrobial potential of the synthesized coumarin–triazole–isatin hybrids was evaluated by the agar well diffusion method. The activity was tested against a variety of Gram-positive bacteria (Staphylococcus aureus ATCC 25923 and ATCC 902710, Staphylococcus epidermidis ATCC 12228, Streptococcus pyogenes ATCC 19615, Enterococcus faecalis ATCC 51299), Gram-negative bacteria (Escherichia coli ATCC 25922, Haemophilus influenzae ATCC 49766, Pseudomonas aeruginosa ATCC 27853, Salmonella typhi ATCC 14028, Neisseria meningitidis ATCC 13090, Neisseria gonorrhoeae ATCC 43069), and fungi (Candida albicans ATCC 60193 and ATCC 90028, Candida orientalis ATCC 6258). All microbial strains were obtained from Microbiologics (St.Cloud, MN, USA).
(§2) The test compounds were dissolved in DMSO to obtain stock solutions (1 mg/mL). Each compound (60 µL) was transferred into wells (6 mm in diameter) that were previously perforated into agar plates inoculated with microbial suspensions standardized to 0.5 McFarland for bacteria and 2 McFarland for Candida spp. DMSO was used as a negative control, while commercial antibiotic disks of novobiocin (5 μg), ampicillin (10 μg), and ciprofloxacin (5 μg) served as positive controls. Antimicrobial activity was assessed by measuring the diameter of zones of inhibition (ZOIs) in millimeters. All tests were conducted in triplicate.

[3] = system: Staphylococcus epidermidis ATCC 12228; assay: Agar well diffusion, S. epidermidis; type: cell-based; details: ATCC12228, read-out: Staphylococcus epidermidis ATCC 12228 ZOI, 60 µL of 1 mg/mL per well, ZOI including the well (6 mm), ± SD, n = 3, ciprofloxacin disk 5 μg
Method: as §1, §2

[4] = target: T1, AChE from Electrophorus electricus (eeAChE) (Electrophorus electricus, UniProt O42275); assay: biochemical; details: for inhibition at 20 µM: read-out: AChE % of Inhibition (Conc. 20 μM); for IC50: average ± standard error (n = 3)
T1 construct: purchased Sigma-Aldrich (St. Louis, MO, USA)

[5] = target: T2, BChE from equine serum (eqBuChE) (Equus caballus, UniProt P81908); assay: biochemical; details: for inhibition at 20 µM: read-out: BChE % of Inhibition (Conc. 20 μM), 20 μM; for Selectivity BChE/AChE: ratio of AChE and BChE IC50
T2 construct: BChE from equine serum (BChE, EC 3.1.1.8); purchased Sigma-Aldrich (St. Louis, MO, USA); host or cells: equine serum
Method: The in vitro cholinesterase inhibitory activity of the synthesized hybrid molecules was evaluated using a modified Ellman’s assay, optimized for 96-well microplate application. AChE from Electrophorus electricus (AChE, EC 3.1.1.7), BChE from equine serum (BChE, EC 3.1.1.8), acetylthiocholine iodide (ATCh), butyrylthiocholine iodide (BTCh), and 5,5′-dithiobis(2-nitrobenzoic acid) were purchased from Sigma-Aldrich (St. Louis, MO, USA) and used without further purification.
Test compounds were initially dissolved in dimethylsulphoxide (DMSO) to yield 1 mM stock solutions and subsequently diluted with 0.1 M phosphate buffer (pH 8.0) to prepare working solutions.
For the assay, 20 µL of compound solution was added to 140 µL of 0.1 M phosphate buffer (pH 8.0) in each well, followed by 20 µL of enzyme solution (AChE or BuChE, 100 U/L). After incubation at room temperature for 10 min, the reaction was initiated by adding 10 µL of DTNB (0.01 M) and 10 µL of substrate (ATCh or BTCh, 0.015 M). […] The percentage inhibition of enzyme activity was calculated using the following equation:(1) % Inhibition=Absorbance of control−Apsorbance of sample/Absorbance of control×100 where the absorbance of the control represents the maximum enzyme activity (without inhibition), and the absorbance of the sample corresponds to the enzyme activity in the presence of the tested compound. Appropriate blanks were included to account for background absorbance and to correct for any intrinsic color of the tested compounds.
All experiments were performed in triplicate.

BChE = target: T3, BChE (Equus caballus, UniProt P81908); assay: Type of enzyme inhibition, Lineweaver–Burk plot; type: biochemical, equine
T3 construct: BChE from equine serum (BChE, EC 3.1.1.8); purchased Sigma-Aldrich (St. Louis, MO, USA); host or cells: equine serum
Method: The concentrations of substrate and inhibitor used in the assay are given in Section 3.3.1.
The type of enzyme inhibition was assessed using Lineweaver–Burk plots, which represent a linear transformation of the Michaelis–Menten equation. This method enables visual classification of inhibition type by plotting the reciprocal of the initial reaction velocity (1/Vo) against the reciprocal of the substrate concentration (1/[S]).
The intersection pattern of the fitted lines was used to identify the inhibition mechanism. All tests were replicated three times.

[6] = ATCC25923, 60 µL of 1 mg/mL per well, ZOI including the well (6 mm), ± SD, n = 3, ciprofloxacin disk 5 μg, read-out: Staphylococcus aureus ATCC 25923 ZOI
[7] = average ± standard error (n = 3)

T2 sequence (P81908 whole entry): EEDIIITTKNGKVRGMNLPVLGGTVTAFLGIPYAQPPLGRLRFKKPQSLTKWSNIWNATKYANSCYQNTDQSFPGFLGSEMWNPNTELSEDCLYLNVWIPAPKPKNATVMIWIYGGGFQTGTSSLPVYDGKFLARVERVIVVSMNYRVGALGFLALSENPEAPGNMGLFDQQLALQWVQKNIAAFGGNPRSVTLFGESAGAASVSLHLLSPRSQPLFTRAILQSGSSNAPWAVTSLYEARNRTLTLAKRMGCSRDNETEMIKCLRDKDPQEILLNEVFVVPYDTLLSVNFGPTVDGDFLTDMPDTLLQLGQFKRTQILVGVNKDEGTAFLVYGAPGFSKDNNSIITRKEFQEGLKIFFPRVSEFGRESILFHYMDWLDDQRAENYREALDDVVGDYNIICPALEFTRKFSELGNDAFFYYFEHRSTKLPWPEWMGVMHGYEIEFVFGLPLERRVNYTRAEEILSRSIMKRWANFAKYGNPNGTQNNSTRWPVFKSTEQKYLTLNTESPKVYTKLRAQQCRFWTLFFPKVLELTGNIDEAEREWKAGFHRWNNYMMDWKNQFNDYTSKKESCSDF
T3 sequence (P81908 whole entry): as above
T1 sequence (O42275 24-633): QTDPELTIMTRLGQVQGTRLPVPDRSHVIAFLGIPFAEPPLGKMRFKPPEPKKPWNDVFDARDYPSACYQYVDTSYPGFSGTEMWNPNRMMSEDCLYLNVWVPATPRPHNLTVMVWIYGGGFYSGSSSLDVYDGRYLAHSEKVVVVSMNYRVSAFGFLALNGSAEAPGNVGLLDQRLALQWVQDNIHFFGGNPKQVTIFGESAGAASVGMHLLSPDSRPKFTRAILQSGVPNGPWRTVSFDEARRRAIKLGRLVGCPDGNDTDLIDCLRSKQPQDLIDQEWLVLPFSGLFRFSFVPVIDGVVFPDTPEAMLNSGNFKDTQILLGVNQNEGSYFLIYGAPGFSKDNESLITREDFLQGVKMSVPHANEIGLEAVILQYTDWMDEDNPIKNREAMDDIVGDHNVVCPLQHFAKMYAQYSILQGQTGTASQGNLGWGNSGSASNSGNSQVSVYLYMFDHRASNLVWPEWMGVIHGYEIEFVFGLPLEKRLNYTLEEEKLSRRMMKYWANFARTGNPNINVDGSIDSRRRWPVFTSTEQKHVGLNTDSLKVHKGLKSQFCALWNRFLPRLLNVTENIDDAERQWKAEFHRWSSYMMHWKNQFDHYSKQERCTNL

Structure (SMILES)	MIC (S. aureus ATCC 25923) [µg/mL]	MIC [1] [µg/mL]	Staphylococcus aureus ATCC 25923 ZOI ([2]; 60 µL of 1 mg/mL per well, ZOI including the well (6 mm), ± SD, n = 3, ciprofloxacin disk 5 μg) [mm]	zone of inhibition at 1000 µg/mL [2, 6] [mm]	zone of inhibition at 1000 µg/mL [3] [mm]	inhibition at 20 µM [4] [%]	Antibacterial activity in words [2]	IC50 [5, 7] [µM]	inhibition at 20 µM [5, 7] [%]	IC50 [4] [µM]	Selectivity BChE/AChE [5]	zone of inhibition at 1000 µg/mL ([2]; ATCC25923, read-out: Staphylococcus aureus ATCC 25923 ZOI, 60 µL of 1 mg/mL per well, ZOI including the well (6 mm), ± SD, n = 3, ciprofloxacin disk 5 μg) [mm]	α value (affinity constant) (BChE; from Lineweaver–Burk plot)	Type of inhibition (BChE; substrate 1–8 mM, inhibitor 4, 8, 12 μM)	BChE % of Inhibition (Conc. 20 μM) ([5]; 20 μM, average ± standard error (n = 3)) [%]
O=C(O)c1cn(C2CC2)c2cc(N3CCNCC3)c(F)cc2c1=O [Ciprofloxacine, ciprofloxacin, reference compound]	0.78 (≈ 2.35 µM)	0.78 (≈ 2.35 µM)	27.00 ± 1.62	27	5.24 ± 1.16	–	–	–	–	–	–	–	–	–	–
O=C1C(=O)N(Cc2cn(CCOc3cc(=O)oc4ccccc34)nn2)c2ccccc21 [Compound 6a1, 1-((1-(2-((2-oxo-2H-chromen-4-yl)oxy)ethyl)-1H-1,2,3-triazol-4-yl)methyl)indoline-2,3-dione]	–	–	–	–	6.08 ± 1.19	29.3 ± 2.14	failed to exhibit significant activity	6.08 ± 1.19	72.8 ± 2.17	–	–	–	–	–	–
O=C1C(=O)N(Cc2cn(CCOc3cc(=O)oc4ccccc34)nn2)c2ccc(F)cc21 [Compound 6a2, 5-fluoro-1-((1-(2-((2-oxo-2H-chromen-4-yl)oxy)ethyl)-1H-1,2,3-triazol-4-yl)methyl)indoline-2,3-dione]	–	–	–	–	9.16 ± 1.69	11.8 ± 1.18	failed to exhibit significant activity	9.16 ± 1.69	66.2 ± 5.18	–	–	–	–	–	–
O=C1C(=O)N(Cc2cn(CCOc3cc(=O)oc4ccccc34)nn2)c2ccc(Cl)cc21 [Compound 6a3, 5-chloro-1-((1-(2-((2-oxo-2H-chromen-4-yl)oxy)ethyl)-1H-1,2,3-triazol-4-yl)methyl)indoline-2,3-dione]	–	–	–	–	10.6 ± 1.13	5.57 ± 1.19	–	10.6 ± 1.13	62.6 ± 6.19	–	–	–	–	–	–
O=C1C(=O)N(Cc2cn(CCOc3cc(=O)oc4ccccc34)nn2)c2ccc(Br)cc21 [Compound 6a4, 5-bromo-1-((1-(2-((2-oxo-2H-chromen-4-yl)oxy)ethyl)-1H-1,2,3-triazol-4-yl)methyl)indoline-2,3-dione]	12.5 (≈ 25.2 µM)	–	–	12 to 20	–	4.57 ± 0.87	showed activity	–	22.7 ± 3.87	–	–	–	–	–	–
O=C1C(=O)N(Cc2cn(CCCOc3cc(=O)oc4ccccc34)nn2)c2ccccc21 [Compound 6b1, 1-((1-(3-((2-oxo-2H-chromen-4-yl)oxy)propyl)-1H-1,2,3-triazol-4-yl)methyl)indoline-2,3-dione]	–	–	–	–	8.52 ± 1.28	69.2 ± 4.27	–	8.52 ± 1.28	69.2 ± 5.27	18.2 ± 1.19	2.13	–	–	–	–
O=C1C(=O)N(Cc2cn(CCCOc3cc(=O)oc4ccccc34)nn2)c2ccc(F)cc21 [Compound 6b2, 5-fluoro-1-((1-(3-((2-oxo-2H-chromen-4-yl)oxy)propyl)-1H-1,2,3-triazol-4-yl)methyl)indoline-2,3-dione]	–	–	–	9.33 ± 4.04	5.9 ± 1.09	44.3 ± 5.69	only modest antibacterial effect	5.9 ± 1.09	75.5 ± 5.69	–	–	–	–	–	–
O=C1C(=O)N(Cc2cn(CCCOc3cc(=O)oc4ccccc34)nn2)c2ccc(Cl)cc21 [Compound 6b3, 5-chloro-1-((1-(3-((2-oxo-2H-chromen-4-yl)oxy)propyl)-1H-1,2,3-triazol-4-yl)methyl)indoline-2,3-dione]	–	–	–	10.3 ± 1.15	11.2 ± 1.16	31.5 ± 3.24	only modest antibacterial effect	11.3 ± 1.16	61.6 ± 7.24	–	–	–	–	–	–
O=C1C(=O)N(Cc2cn(CCCOc3cc(=O)oc4ccccc34)nn2)c2ccc(Br)cc21 [Compound 6b4, 5-bromo-1-((1-(3-((2-oxo-2H-chromen-4-yl)oxy)propyl)-1H-1,2,3-triazol-4-yl)methyl)indoline-2,3-dione]	6.25 (≈ 12.3 µM)	25 (≈ 49.1 µM)	–	–	14	22.9 ± 2.11	moderate antibacterial effects	13.3 ± 2.19	66.2 ± 8.11	–	–	20	–	–	–
O=C1C(=O)N(Cc2cn(CCCOc3cc(=O)oc4ccccc34)nn2)c2ccc(I)cc21 [Compound 6b5, 5-iodo-1-((1-(3-((2-oxo-2H-chromen-4-yl)oxy)propyl)-1H-1,2,3-triazol-4-yl)methyl)indoline-2,3-dione]	–	–	–	–	14.8 ± 1.44	27.6 ± 1.49	largely inactive	14.8 ± 1.44	61.6 ± 7.49	–	–	–	–	–	–
O=C1C(=O)N(Cc2cn(CCCCOc3cc(=O)oc4ccccc34)nn2)c2ccccc21 [Compound 6c1, 1-((1-(4-((2-oxo-2H-chromen-4-yl)oxy)butyl)-1H-1,2,3-triazol-4-yl)methyl)indoline-2,3-dione]	–	–	–	8.67 ± 1.15	1.74 ± 0.29	67.1 ± 3.27	only weak antibacterial activity	1.74 ± 0.29	84.5 ± 8.46	15.3 ± 1.22	8.78	–	greater than 1	mixed-type inhibition	–
O=C1C(=O)N(Cc2cn(CCCCOc3cc(=O)oc4ccccc34)nn2)c2ccc(F)cc21 [Compound 6c2, 5-fluoro-1-((1-(4-((2-oxo-2H-chromen-4-yl)oxy)butyl)-1H-1,2,3-triazol-4-yl)methyl)indoline-2,3-dione]	–	–	–	12 ± 2.65	5.51 ± 1.38	61 ± 3.49	only weak antibacterial activity	5.51 ± 1.38	79.1 ± 5.49	17.1 ± 1.65	3.11	–	–	–	–
Cc1ccc2c(c1)C(=O)C(=O)N2Cc1cn(CCCCOc2cc(=O)oc3ccccc23)nn1 [Compound 6c7, 5-methyl-1-((1-(4-((2-oxo-2H-chromen-4-yl)oxy)butyl)-1H-1,2,3-triazol-4-yl)methyl)indoline-2,3-dione]	–	–	–	–	–	12.1 ± 1.26	largely inactive	–	< 11	–	–	–	–	–	10.32 ± 1.53
